According to patent publication US9988371B2, “Benzimidazole analogues and related methods” (The Arizona Board of Regents, on Behalf of the University …, priority 2014, dated 2018):

Assays:
[1] = test system: TT cells (MTC, RET/C634W); assay: Growth curve proliferation assay, TT cells; format: cell-based; conditions: Homo sapiens, last day of growth curves
Description: FIG. 5: Effects exerted by indicated concentrations of Pz-1 or vehicle (NT: not treated) on proliferation of TT (human MTC cell line expressing RET/C634W), Lc-2/ad (human NSCLC expressing CCDC6-RET) and Nthy-ori-3-1 (thyroid non-transformed) cell lines. Data are the mean±SD (Standard Deviation) of one experiment performed in triplicate. Bottom, right) Growth inhibition IC50 of Pz-1 for the different cell lines: 95% CI (confidence intervals) are indicated in brackets. Cells were seeded in triplicate in 60-mm dishes and kept in 5% (Nthy-ori-3-1) or 10% (TT and Lc-2/ad) fetal calf serum. The day after plating, different concentrations of Pz-1 or vehicle were added to the medium and changed every 2-3 days. Cells were counted every 2-3 days and cell numbers were reported±SD (Standard Deviation). IC50 doses (with Confidence Intervals) were calculated through a curve fitting analysis from the last day of growth curves using the PRIZM software program (Graphpad Software Inc).
Nthy-ory-3-1 and TTcells were seeded in 60-mm dishes. […] Cells were counted every 2-3 days. […] Parental and RET/PTC-expressing Ba/F3 were kept in 10% fetal calf serum in 6-multi wells and counted every day for 4 consecutive days, changing media every 2 days. […] IC50 doses were calculated through a curve fitting analysis from the last day of growth curves using the PRISM software program (Graphpad Software Inc). […]

RET/C634W = target: T1, RET/C634W (Homo sapiens, UniProt P07949, C634W); assay: RET auto-phosphorylation immunoblot in TT cells; format: cell-based; conditions: 1 nM
T1 construct: RET protein endogenously expressed in TT cells; endogenous in cells; host or cells: TT (human medullary thyroid carcinoma)
T1 sequence (P07949 29-1114 C634W): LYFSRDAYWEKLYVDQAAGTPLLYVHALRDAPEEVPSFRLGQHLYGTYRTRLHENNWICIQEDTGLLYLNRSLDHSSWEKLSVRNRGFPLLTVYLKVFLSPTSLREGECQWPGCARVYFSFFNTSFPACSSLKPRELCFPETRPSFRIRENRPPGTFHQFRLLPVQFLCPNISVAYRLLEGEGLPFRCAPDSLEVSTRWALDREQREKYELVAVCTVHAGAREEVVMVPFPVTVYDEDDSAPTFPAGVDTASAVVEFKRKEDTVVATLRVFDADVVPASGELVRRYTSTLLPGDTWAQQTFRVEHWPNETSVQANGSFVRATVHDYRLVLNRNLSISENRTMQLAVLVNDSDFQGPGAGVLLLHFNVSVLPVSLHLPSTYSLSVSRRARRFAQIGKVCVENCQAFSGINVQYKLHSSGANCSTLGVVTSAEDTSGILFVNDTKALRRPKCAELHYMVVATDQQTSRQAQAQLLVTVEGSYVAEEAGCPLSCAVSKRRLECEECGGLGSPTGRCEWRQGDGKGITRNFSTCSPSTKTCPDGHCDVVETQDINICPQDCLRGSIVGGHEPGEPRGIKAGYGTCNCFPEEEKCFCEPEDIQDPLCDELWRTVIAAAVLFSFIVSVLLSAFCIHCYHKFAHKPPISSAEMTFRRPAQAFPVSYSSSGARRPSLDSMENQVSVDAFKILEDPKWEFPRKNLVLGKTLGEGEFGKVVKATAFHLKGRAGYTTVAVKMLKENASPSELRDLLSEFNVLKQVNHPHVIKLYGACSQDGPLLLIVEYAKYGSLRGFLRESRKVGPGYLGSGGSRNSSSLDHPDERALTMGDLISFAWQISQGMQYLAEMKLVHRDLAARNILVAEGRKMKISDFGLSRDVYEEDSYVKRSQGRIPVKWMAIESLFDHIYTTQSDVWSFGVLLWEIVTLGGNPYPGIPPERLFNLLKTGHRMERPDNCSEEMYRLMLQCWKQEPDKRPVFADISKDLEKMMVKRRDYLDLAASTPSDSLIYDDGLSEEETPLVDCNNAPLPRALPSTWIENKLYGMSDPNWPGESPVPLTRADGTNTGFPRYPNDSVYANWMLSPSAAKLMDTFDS
Description: FIG. 3: Photographs of blots showing inhibition of RET protein endogenously expressed in TT cells (human MTC cell line expressing RET/C634W) by indicated concentrations of Pz-1 or vehicle (NT: not treated) and reduced effects in thyroid non-transformed Nthy-ori-3-1 cells. Serum-starved human TT and thyroid non-transformed Nthy-ori-3-1 cell lines were treated for 2 hr with indicated concentrations of Pz-1. 50 μg of total cell lysates were subjected to immunoblotting with anti-phospho-Y1062 (αp1062) and anti-phospho-905 (αpY905) RET antibodies, anti-phospho-MAPK (αpMAPK, T302/Y304), and anti-phospho-SHC (αpSHC, Y317) antibodies. The blots were normalized using anti-RET (αRET) and anti-SHC (αSHC).
The inhibition of RET auto-phosphorylation by Pz-1 was measured in several different cell lines including NIH3T3 fibroblasts expressing RET/C634Y or RET/M918T, TT expressing RET/C634W (MTC), Nthy-ory-3-1 (thyroid, non-transformed with RET; negative control), HEK293/RET/PTC1 (CCDC6-RET that can be found in PTC & lung cancer), HEK293/RET-KIF5B (that can be found in lung cancer), HEK293/RET/PTC3 (NCOA4-RET, that can be found in PTC & lung cancer), and HEK293 transfected with RET/C634R-V804M (FIGS. 1-3). […]
Protein lysates were prepared according to standard procedures. […] Immune complexes were detected with the enhanced chemiluminescence kit (Amersham Pharmacia Biotech, Little Chalfort, UK). […]

## Cn1cc(-c2ccc3c(c2)ncn3-c2ccc(CC(=O)Nc3cc(C(C)(C)C)on3)cc2)cn1 [Pz-1, N-(5-(tert-butyl)isoxazol-3-yl)-2-(4-(5-(1-methyl-1H-pyrazol-4-yl)-1H-benzo[d]imidazol-1-yl)phenyl)acetamide]
[1]
  IC50: 1.86 nM
RET/C634W
  inhibition of pRET: strongly inhibited
